Laboratory results taken from PubChem BioAssay (NCI).
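In this assay, cells in 96-well plates receive the compound at five concentrations for 48 hours. Endpoints are linearly interpolated between the surrounding concentrations. The concentration for 50% growth inhibition is given as GI50. TGI: total growth inhibition.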

What was measured:
Assay in all cases: growth of human tumour cells (NCI), 48 h
A549 NSCLC = system: A549 NSCLC
OVCAR-4 ovarian = system: OVCAR-4 ovarian
MOLT-4 leukemia = system: MOLT-4 leukemia
MALME-3M melanoma = system: MALME-3M melanoma
RXF 393 renal = system: RXF 393 renal
PC-3 prostate = system: PC-3 prostate
MDA-MB-435 = system: MDA-MB-435
SW-620 colon = system: SW-620 colon
SNB-19 CNS = system: SNB-19 CNS
EKVX NSCLC = system: EKVX NSCLC
SF-268 CNS = system: SF-268 CNS
NCI-H460 lung = system: NCI-H460 lung
HOP-62 NSCLC = system: HOP-62 NSCLC
HL-60(TB) leukemia = system: HL-60(TB) leukemia
ACHN renal = system: ACHN renal
CCRF-CEM leukemia = system: CCRF-CEM leukemia
SK-MEL-2 melanoma = system: SK-MEL-2 melanoma
M14 melanoma = system: M14 melanoma
MCF7 breast = system: MCF7 breast
NCI-H226 lung = system: NCI-H226 lung
UACC-257 melanoma = system: UACC-257 melanoma
DU-145 prostate = system: DU-145 prostate
OVCAR-3 ovarian = system: OVCAR-3 ovarian
TK-10 renal = system: TK-10 renal
IGROV1 ovarian = system: IGROV1 ovarian
UACC-62 melanoma = system: UACC-62 melanoma
786-0 renal = system: 786-0 renal
SN12C renal = system: SN12C renal
SF-295 CNS = system: SF-295 CNS
CAKI-1 renal = system: CAKI-1 renal
OVCAR-8 ovarian = system: OVCAR-8 ovarian
UO-31 renal = system: UO-31 renal
MDA-MB-231 breast = system: MDA-MB-231 breast
RPMI-8226 leukemia = system: RPMI-8226 leukemia
NCI-H522 lung = system: NCI-H522 lung
BT-549 breast = system: BT-549 breast
HCT-15 colon = system: HCT-15 colon
SK-OV-3 ovarian = system: SK-OV-3 ovarian
HCT-116 colon = system: HCT-116 colon
NCI/ADR-RES ovarian = system: NCI/ADR-RES ovarian
OVCAR-5 ovarian = system: OVCAR-5 ovarian
HT29 colon = system: HT29 colon
LOX IMVI melanoma = system: LOX IMVI melanoma
U251 CNS = system: U251 CNS
SK-MEL-5 melanoma = system: SK-MEL-5 melanoma
KM12 colon = system: KM12 colon
HOP-92 NSCLC = system: HOP-92 NSCLC
NCI-H23 lung = system: NCI-H23 lung
T-47D breast = system: T-47D breast
SK-MEL-28 melanoma = system: SK-MEL-28 melanoma
COLO 205 colon = system: COLO 205 colon
HS 578T breast = system: HS 578T breast
SF-539 CNS = system: SF-539 CNS
SR leukemia = system: SR leukemia
HCC-2998 colon = system: HCC-2998 colon
K-562 leukemia = system: K-562 leukemia
SNB-75 CNS = system: SNB-75 CNS

## Cc1cc2c(cc1Cl)SC1=CC(=O)N(c3ccccc3)C1=NS2(=O)=O
A549 NSCLC
  GI50: > 100 µM
  TGI: > 100 µM
OVCAR-4 ovarian
  GI50: 65.3 µM
  TGI: > 100 µM
MOLT-4 leukemia
  GI50: 31.7 µM
  TGI: > 100 µM
MALME-3M melanoma
  GI50: 44.6 µM
  TGI: > 100 µM
RXF 393 renal
  GI50: > 100 µM
  TGI: > 100 µM
PC-3 prostate
  GI50: 37.4 µM
  TGI: > 100 µM
MDA-MB-435
  GI50: > 100 µM
  TGI: > 100 µM
SW-620 colon
  GI50: 33.1 µM
  TGI: > 100 µM
SNB-19 CNS
  GI50: 54.5 µM
  TGI: > 100 µM
EKVX NSCLC
  GI50: > 100 µM
  TGI: > 100 µM
SF-268 CNS
  GI50: 92.3 µM
  TGI: > 100 µM
NCI-H460 lung
  GI50: 59.5 µM
  TGI: > 100 µM
HOP-62 NSCLC
  GI50: 46 µM
  TGI: > 100 µM
HL-60(TB) leukemia
  GI50: 23.8 µM
  TGI: 63.8 µM
ACHN renal
  GI50: 26.6 µM
  TGI: > 100 µM
CCRF-CEM leukemia
  GI50: 24.8 µM
  TGI: 95.5 µM
SK-MEL-2 melanoma
  GI50: 51.4 µM
  TGI: > 100 µM
M14 melanoma
  GI50: 21 µM
  TGI: 42.8 µM
MCF7 breast
  GI50: 39.4 µM
  TGI: > 100 µM
NCI-H226 lung
  GI50: 66.7 µM
  TGI: > 100 µM
UACC-257 melanoma
  GI50: 51.5 µM
  TGI: > 100 µM
DU-145 prostate
  GI50: 59.4 µM
  TGI: > 100 µM
OVCAR-3 ovarian
  GI50: > 100 µM
  TGI: > 100 µM
TK-10 renal
  GI50: 21.6 µM
  TGI: 60.3 µM
IGROV1 ovarian
  GI50: 53.9 µM
  TGI: > 100 µM
UACC-62 melanoma
  GI50: 33 µM
  TGI: > 100 µM
786-0 renal
  GI50: 27.5 µM
  TGI: 71.6 µM
SN12C renal
  GI50: 32 µM
  TGI: > 100 µM
SF-295 CNS
  GI50: > 100 µM
  TGI: > 100 µM
CAKI-1 renal
  GI50: > 100 µM
  TGI: > 100 µM
OVCAR-8 ovarian
  GI50: 57.1 µM
  TGI: > 100 µM
UO-31 renal
  GI50: 54 µM
  TGI: > 100 µM
MDA-MB-231 breast
  GI50: 43.7 µM
  TGI: > 100 µM
RPMI-8226 leukemia
  GI50: 14.4 µM
  TGI: 36.5 µM
NCI-H522 lung
  GI50: 67.1 µM
  TGI: > 100 µM
BT-549 breast
  GI50: 30 µM
  TGI: 65.3 µM
HCT-15 colon
  GI50: > 100 µM
  TGI: > 100 µM
SK-OV-3 ovarian
  GI50: > 100 µM
  TGI: > 100 µM
HCT-116 colon
  GI50: 30.9 µM
  TGI: > 100 µM
NCI/ADR-RES ovarian
  GI50: 37.8 µM
  TGI: > 100 µM
OVCAR-5 ovarian
  GI50: > 100 µM
  TGI: > 100 µM
HT29 colon
  GI50: 21.5 µM
  TGI: 67.8 µM
LOX IMVI melanoma
  GI50: 26.2 µM
  TGI: 61.1 µM
U251 CNS
  GI50: 57.5 µM
  TGI: > 100 µM
SK-MEL-5 melanoma
  TGI: 10.8 µM
KM12 colon
  GI50: 26.1 µM
  TGI: 67.3 µM
HOP-92 NSCLC
  GI50: 34.3 µM
  TGI: > 100 µM
NCI-H23 lung
  GI50: > 100 µM
  TGI: > 100 µM
T-47D breast
  GI50: 13 µM
  TGI: 65.1 µM
SK-MEL-28 melanoma
  GI50: 16.9 µM
  TGI: 40.9 µM
COLO 205 colon
  GI50: 26.4 µM
  TGI: 67 µM

## Cc1nc(Cl)nc(Cl)c1C
A549 NSCLC
  TGI: > 100 µM
OVCAR-4 ovarian
  TGI: > 100 µM
MOLT-4 leukemia
  TGI: > 100 µM
MALME-3M melanoma
  TGI: > 100 µM
RXF 393 renal
  TGI: > 100 µM
PC-3 prostate
  TGI: > 100 µM
MDA-MB-435
  TGI: > 100 µM
SW-620 colon
  TGI: > 100 µM
SNB-19 CNS
  TGI: > 100 µM
EKVX NSCLC
  TGI: > 100 µM
SF-268 CNS
  TGI: > 100 µM
NCI-H460 lung
  TGI: > 100 µM
HOP-62 NSCLC
  TGI: > 100 µM
HL-60(TB) leukemia
  TGI: > 100 µM
ACHN renal
  TGI: > 100 µM
CCRF-CEM leukemia
  TGI: > 100 µM
SK-MEL-2 melanoma
  TGI: > 100 µM
M14 melanoma
  TGI: > 100 µM
HS 578T breast
  TGI: > 100 µM
MCF7 breast
  TGI: > 100 µM
NCI-H226 lung
  TGI: > 100 µM
UACC-257 melanoma
  TGI: > 100 µM
OVCAR-3 ovarian
  TGI: > 100 µM
TK-10 renal
  TGI: > 100 µM
IGROV1 ovarian
  TGI: > 100 µM
786-0 renal
  TGI: > 100 µM
SF-539 CNS
  TGI: > 100 µM
SN12C renal
  TGI: > 100 µM
SF-295 CNS
  TGI: > 100 µM
SR leukemia
  TGI: > 100 µM
OVCAR-8 ovarian
  TGI: > 100 µM
UO-31 renal
  TGI: > 100 µM
RPMI-8226 leukemia
  TGI: > 100 µM
NCI-H522 lung
  TGI: > 100 µM
BT-549 breast
  TGI: > 100 µM
HCC-2998 colon
  TGI: > 100 µM
HCT-15 colon
  TGI: > 100 µM
SK-OV-3 ovarian
  TGI: > 100 µM
NCI/ADR-RES ovarian
  TGI: > 100 µM
OVCAR-5 ovarian
  TGI: > 100 µM
K-562 leukemia
  TGI: > 100 µM
HT29 colon
  TGI: > 100 µM
LOX IMVI melanoma
  TGI: > 100 µM
U251 CNS
  TGI: > 100 µM
SK-MEL-5 melanoma
  TGI: > 100 µM
KM12 colon
  TGI: > 100 µM
NCI-H23 lung
  TGI: > 100 µM
SNB-75 CNS
  TGI: > 100 µM
SK-MEL-28 melanoma
  TGI: > 100 µM
